Laboratory results taken from publication PMC12702354, “Engineered an ultrasmall curcumin oral nanoformulation restores intestinal integrity and gut microbiota dysbiosis” (Materials Today Bio, 2025).

Assays:
[1] = Distribution of DiR-loaded UsNFs in the GIT; format: in vivo, C57BL/6J mice; conditions: oral, 2 mg/kg DiR
Protocol: 34 Distribution of UsNFs in the GIT.
37 of 2 mg/kg DiR. […] The stomachs and
41 FITC-dextran permeability assay .
Blood samples were collected at
44 shielded from light exposure. […] Standards (0.1–
48 subtraction and subjected to statistical analysis.
The mice were divided into three groups
61 sterilized drinking water.

[2] = system: VAN-induced C57BL/6J mouse model; assay: VAN-induced intestinal epithelial barrier dysfunction and gut inflammation model
Protocol: This was succeeded by a daily oral administration of 50 mg/kg UsNFs of CUR for another 10 days, whereas the control group (CON) received standard rodent feed and water (Fig. 5A).

[3] = system: faecal metabolites of gut bacteria; assay: Faecal metabolome analysis (GC-MS) in VAN-induced mice; format: in vivo, C57BL/6 mice
Protocol: The extract of faecal samples (40 mg/ml methanol) was prepared as described in the previous method. The obtained dry extract was derivatized with methoxyamine-HCl and BSTFA (Sigma-Aldrich, USA), followed by incubation for 1 h at 37 °C. Subsequently, the supernatant (10 μl) obtained after centrifugation at 10,000×g for 12 min was injected into an Agilent GC-MS. The injector, transfer line, and ion source were set at 280 °C, 150 °C and 230 °C, respectively. At the beginning, we set the oven temperature to 60 °C, and then increased at 60 °C/min for 2 min, followed by an increase at the rate of 10 °C/min until reaching 300 °C.

Row | Residence in the GIT (NIR signal of DiR) [1] | Compound | Colon length increase over control group ([2]; VAN 20 mg/ml in drinking water, 10 days) | MDA level increase ([2]; VAN-induced group) | Content of butyrate in faeces ([3]; VAN-induced group (CON 1.1 %)) | Content of propionate in faeces ([3]; VAN-induced group (CON 1.3 %)) | Content of acetate in faeces ([3]; VAN-induced group (CON 1.52 %)) | Content of azelaic acid in faeces ([3]; VAN-induced group (CON 2.2 %)) | Content of 9,12,15-octadecatrienoic acid in faeces ([3]; VAN-induced group (CON 3.11 %)) | Content of 4-aminovaleric acid in faeces ([3]; VAN-induced group (CON 12.7 %)) | Content of hexanoic acid in faeces ([3]; VAN-induced group, printed from 23.7 % to 0.81 %)
1 | quick removal via feces | CCCCCCCCCCCCCCCCCCN1C(=CC=CC=CC=CC2=[N+](CCCCCCCCCCCCCCCCCC)c3ccccc3C2(C)C)C(C)(C)c2ccccc21 [Free DiR, 1,1′-dioctadecyl-3,3,3′,3′-tetramethylindotricarbocyanine] | – | – | – | – | – | – | – | – | –
2 | – | CN[C@H](CC(C)C)C(=O)N[C@H]1C(=O)N[C@@H](CC(N)=O)C(=O)N[C@H]2C(=O)N[C@H]3C(=O)N[C@H](C(=O)N[C@H](C(=O)O)c4cc(O)cc(O)c4-c4cc3ccc4O)[C@H](O)c3ccc(c(Cl)c3)Oc3cc2cc(c3O[C@@H]2O[C@H](CO)[C@@H](O)[C@H](O)[C@H]2O[C@H]2C[C@](C)(N)[C@H](O)[C@H](C)O2)Oc2ccc(cc2Cl)[C@H]1O [VAN, vancomycin] | 21.9% | around 2.5 times | 0.14% | 0.16% | 0.16% | 0.34% | 0.8% | 1.4% | 0.81%
